Where a SMILES comes first, the peptide text is derived from it. Where no end group is shown, it is not given here. The star is where a group is joined. FITC = O=C1OC2(c3ccc(O)cc3Oc3cc(O)ccc32)c2ccc(NC(=S)*)cc21; Ahx = NCCCCCC(=O)O
How the values were obtained:
IMPαΔIBB isoforms [1] = experiment: FP assays, summary over all IMPαΔIBB isoforms; assay type: binding
Source text: Recombinant IMPαΔIBB proteins were produced for structural analysis and assays to elucidate the binding profiles with PyV LTAs. For this, plasmid constructs encoding IMPα isoforms with an N‐terminal truncation removing the autoinhibitory IBB domain (ΔIBB) were synthesized (GenScript Biotech, Singapore). Codon optimized genes were designed with an N‐terminal 6xHis tag and TEV protease cleavage site and were cloned into the BamHI site of pET30a (GenScript Biotech, Singapore). […] For protein expression, the plasmids were transformed via heat shock into BL21(DE3)pLysS E. coli cells (Thermofisher Scientific, Monza, Italy) and grown in 1 L baffled flasks at room temperature using auto‐induction methods for 24–48 h (Studier, [2005]). […] Following this, the 6xHis tag was cleaved using TEV protease incubated overnight at 4°C, and then further purified via gel filtration using a Superdex 200 pg 26/600 column (Cytiva, Marlborough, USA) and tris‐buffered saline (50 mM tris, 125 mM sodium chloride, pH 8.0). […] Peak fractions were assessed for purity using SDS‐PAGE, then pooled and concentrated using 10 kDa cutoff centrifugal filters (Merck Millipore, Milan, Italy). […]
(§1) FP was used to quantify binding affinities of the HPyV LTA cNLSs for IMPαΔIBB proteins. […] The CLARIOstar Plus (BMG Labtech, Mornington, Australia) plate reader measured FP values, with each assay repeated in triplicate. […]

IMPα3ΔIBB = IMPα3ΔIBB (Homo sapiens, UniProt O00629); experiment: biochemical; assay type: binding; conditions: for Kd: SEM
Source text: (§2) Recombinant IMPαΔIBB proteins were produced for structural analysis and assays to elucidate the binding profiles with PyV LTAs. For this, plasmid constructs encoding IMPα isoforms with an N‐terminal truncation removing the autoinhibitory IBB domain (ΔIBB) were synthesized (GenScript Biotech, Singapore). Codon optimized genes were designed with an N‐terminal 6xHis tag and TEV protease cleavage site and were cloned into the BamHI site of pET30a (GenScript Biotech, Singapore). […] For protein expression, the plasmids were transformed via heat shock into BL21(DE3)pLysS E. coli cells (Thermofisher Scientific, Monza, Italy) and grown in 1 L baffled flasks at room temperature using auto‐induction methods for 24–48 h (Studier, [2005]). […] Following this, the 6xHis tag was cleaved using TEV protease incubated overnight at 4°C, and then further purified via gel filtration using a Superdex 200 pg 26/600 column (Cytiva, Marlborough, USA) and tris‐buffered saline (50 mM tris, 125 mM sodium chloride, pH 8.0). […] Peak fractions were assessed for purity using SDS‐PAGE, then pooled and concentrated using 10 kDa cutoff centrifugal filters (Merck Millipore, Milan, Italy). All samples were aliquoted and stored at −80°C until further use.
(§3) Peptides corresponding to the cNLS regions of each PyV were synthesized for use in crystallography and binding assays. An automated CEM Liberty Blue solid phase peptide synthesizer generated each peptide with an added N‐terminal fluorescein isothiocyanate (FITC) tag. The reaction was performed using DIC and Oxyma coupling reagent and Fmoc deprotection with 20% (v/v) piperidine/DMF solution, all at 90°C. Following the final coupling, peptides were cleaved from the resin using a solution of TFA/TIPS/H2O (95/2.5/2.5) for 3 h. Purification was performed with HPLC and the peptides lyophilized to powder. Prior to use, peptide stock solutions were resolubilized to 10 mM concentration, aliquoted, and stored at −20°C until use.
FP was used to quantify binding affinities of the HPyV LTA cNLSs for IMPαΔIBB proteins. Two‐fold dilutions of recombinant IMPαΔIBB proteins were titrated into black Fluotrac microplates (Greiner Bio‐One, Kremsmünster, Austria) and FITC‐cNLS peptides were added to each well before making up to a total volume of 200 μL with tris‐buffered saline. The gain adjustment was made using a well with no FITC‐NLS peptide. The CLARIOstar Plus (BMG Labtech, Mornington, Australia) plate reader measured FP values, with each assay repeated in triplicate. Binding curves to calculate K d and B max values were generated with the one site specific binding least square fit function of Prism 9 (GraphPad) software.

IMPαΔIBB isoforms [2] = experiment: Electrophoresis mobility shift assays (EMSAs) of FITC-cNLS peptides with IMPαΔIBB isoforms; assay type: binding; conditions: EMSA, 1.5% agarose gel, TB buffer pH 8.5, FITC-cNLS peptide, in words
IMPα2ΔIBB [3] = target: T1, IMPα2ΔIBB (Mus musculus, UniProt P52293); experiment: X-ray crystallography of cNLS peptides complexed with IMPα2ΔIBB; assay type: binding; conditions: FITC-cNLS peptide soaked or co-crystallized, in words
Source text: Recombinant IMPαΔIBB proteins were produced for structural analysis and assays to elucidate the binding profiles with PyV LTAs. For this, plasmid constructs encoding IMPα isoforms with an N‐terminal truncation removing the autoinhibitory IBB domain (ΔIBB) were synthesized (GenScript Biotech, Singapore). Codon optimized genes were designed with an N‐terminal 6xHis tag and TEV protease cleavage site and were cloned into the BamHI site of pET30a (GenScript Biotech, Singapore). […] For protein expression, the plasmids were transformed via heat shock into BL21(DE3)pLysS E. coli cells (Thermofisher Scientific, Monza, Italy) and grown in 1 L baffled flasks at room temperature using auto‐induction methods for 24–48 h (Studier, [2005]). […] Peak fractions were assessed for purity using SDS‐PAGE, then pooled and concentrated using 10 kDa cutoff centrifugal filters (Merck Millipore, Milan, Italy). […]
X‐ray crystallography was employed to characterize HPyV LTA cNLSs bound to IMPα2ΔIBB. […] Protein interface interactions used in the structure figures were calculated using PDBePISA (Krissinel & Henrick, [2007]), with hydrogens removed in the PDB input models.

IMPα2ΔIBB [4] = target: T1, IMPα2ΔIBB; experiment: biochemical; assay type: binding; conditions: for Kd: SEM; for binding to IMPα2ΔIBB: FITC-labeled MCPyV LTA NLS peptides, EMSAs and FP assays, in words
IMPα5ΔIBB = IMPα5ΔIBB (Homo sapiens, UniProt P52294); experiment: FP assay, FITC-cNLS peptide binding to IMPα5ΔIBB; conditions: FITC-Ahx-cNLS peptide, two-fold dilutions of recombinant IMPα5ΔIBB, tris-buffered saline, 200 μL, one site specific binding fit, mean ± SEM, three independent experiments, read-out: Kd (nM), a5
Source text: as §2
as §3, with “Prior to use, peptide stock solutions were resolubilized to 10 mM concentration, aliquoted, and stored at −20°C until use.” left out
as §1

IMPα1ΔIBB = IMPα1ΔIBB (Homo sapiens, UniProt P52292); experiment: Fluorescence polarization (FP) assay, FITC-cNLS peptide binding to IMPα1ΔIBB; conditions: FITC-Ahx-cNLS peptide, two-fold dilutions of recombinant IMPα1ΔIBB, tris-buffered saline, 200 μL, one site specific binding fit, mean ± SEM, three independent experiments, read-out: Kd (nM), a1
Source text: as §2
as §3, with “Prior to use, peptide stock solutions were resolubilized to 10 mM concentration, aliquoted, and stored at −20°C until use.” left out
as §1

IMPα7ΔIBB = IMPα7ΔIBB (Homo sapiens, UniProt O60684); experiment: FP assay, FITC-cNLS peptide binding to IMPα7ΔIBB; conditions: FITC-Ahx-cNLS peptide, two-fold dilutions of recombinant IMPα7ΔIBB, tris-buffered saline, 200 μL, one site specific binding fit, mean ± SEM, three independent experiments, read-out: Kd (nM), a7
Source text: as §2
as §3, with “Prior to use, peptide stock solutions were resolubilized to 10 mM concentration, aliquoted, and stored at −20°C until use.” left out
as §1

Chain of IMPα7ΔIBB (O60684 73-536, stated change not applied): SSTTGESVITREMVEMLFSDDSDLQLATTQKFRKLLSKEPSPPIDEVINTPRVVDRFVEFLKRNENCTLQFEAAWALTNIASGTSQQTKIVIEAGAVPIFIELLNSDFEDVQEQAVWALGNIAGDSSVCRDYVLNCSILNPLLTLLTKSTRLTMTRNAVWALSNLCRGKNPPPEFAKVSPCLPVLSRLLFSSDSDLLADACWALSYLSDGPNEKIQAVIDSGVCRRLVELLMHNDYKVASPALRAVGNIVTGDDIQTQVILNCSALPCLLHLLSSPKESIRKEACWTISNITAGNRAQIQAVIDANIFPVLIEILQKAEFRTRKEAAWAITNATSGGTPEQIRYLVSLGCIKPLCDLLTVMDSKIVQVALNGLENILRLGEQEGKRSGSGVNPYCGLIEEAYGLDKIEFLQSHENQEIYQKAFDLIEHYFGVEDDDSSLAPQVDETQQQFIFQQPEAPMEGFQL
Chain of IMPα3ΔIBB (O00629 64-521, stated change not applied): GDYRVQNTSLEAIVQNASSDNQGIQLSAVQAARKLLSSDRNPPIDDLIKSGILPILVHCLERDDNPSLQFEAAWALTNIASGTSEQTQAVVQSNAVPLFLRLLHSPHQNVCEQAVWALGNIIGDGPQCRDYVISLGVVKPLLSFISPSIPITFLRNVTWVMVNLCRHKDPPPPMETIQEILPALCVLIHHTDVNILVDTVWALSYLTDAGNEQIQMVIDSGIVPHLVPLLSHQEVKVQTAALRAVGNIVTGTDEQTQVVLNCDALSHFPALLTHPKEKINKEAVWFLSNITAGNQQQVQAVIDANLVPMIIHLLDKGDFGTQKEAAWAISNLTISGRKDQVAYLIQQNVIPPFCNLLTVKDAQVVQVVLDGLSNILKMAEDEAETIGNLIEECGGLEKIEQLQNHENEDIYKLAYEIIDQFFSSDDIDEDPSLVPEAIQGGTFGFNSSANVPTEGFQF
Chain of IMPα5ΔIBB (P52294 73-538, stated change not applied): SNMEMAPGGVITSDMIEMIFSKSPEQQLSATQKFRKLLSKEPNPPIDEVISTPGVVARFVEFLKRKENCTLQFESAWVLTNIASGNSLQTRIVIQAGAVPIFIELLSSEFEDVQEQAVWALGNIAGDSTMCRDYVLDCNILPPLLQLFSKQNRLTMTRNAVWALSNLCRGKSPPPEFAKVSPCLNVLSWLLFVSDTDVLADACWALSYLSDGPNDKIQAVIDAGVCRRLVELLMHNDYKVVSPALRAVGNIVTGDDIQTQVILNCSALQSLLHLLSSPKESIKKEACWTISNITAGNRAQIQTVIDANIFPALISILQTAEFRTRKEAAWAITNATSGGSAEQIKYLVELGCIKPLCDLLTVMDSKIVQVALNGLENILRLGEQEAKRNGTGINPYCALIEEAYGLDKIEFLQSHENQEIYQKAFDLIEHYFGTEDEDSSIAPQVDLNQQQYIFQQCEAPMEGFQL

Compound	Kd (IMPα2ΔIBB [4])	Kd (IMPα5ΔIBB)	Kd (IMPα1ΔIBB)	Kd (IMPα3ΔIBB)	Kd (IMPα7ΔIBB)	further results
{FITC-Ahx}-SSSDEEEPASSASVNPEEGCSQDSKYSATPPKQKKPN [HPyV7 LTA cNLS peptide]	–	–	–	–	–	IMPα isoform specificity (IMPαΔIBB isoforms [1]; in words): selectively bound to IMPα3ΔIBB; Kds for IMPαΔIBB isoforms (IMPαΔIBB isoforms [1]; span over IMPα1, 2, 3, 5, 7 ΔIBB): too weak to allow estimation of a Kd; binding to IMPα3ΔIBB (IMPα3ΔIBB; in vitro, FP, in words): weakly binding IMPα3ΔIBB; co-migration with IMPαΔIBB isoforms (IMPαΔIBB isoforms [2]): a very small fraction of HPyV7 LTA monopartite cNLS co‐migrated with IMPαΔIBB isoforms
{FITC-Ahx}-MFASDDENTGSQHSTPPKKKKKV [JCPyV LTA NLS peptide, FITC-Ahx-labelled synthetic peptide of JCPyV LTA monopartite cNLS, residues 111-133]	–	–	–	–	–	binding mode in crystal structure with IMPα2ΔIBB (IMPα2ΔIBB [3]): bound as a monopartite cNLS at the major site of IMPα2ΔIBB; co-migration with IMPαΔIBB isoforms (IMPαΔIBB isoforms [2]): co‐migrated with all IMPαΔIBB isoforms
C[C@H](NC(=O)[C@H](Cc1c[nH]cn1)NC(=O)[C@H](CCCCN)NC(=O)[C@H](CCCCN)NC(=O)[C@H](CCCCN)NC(=O)[C@@H]1CCCN1C(=O)[C@@H]1CCCN1C(=O)[C@@H](NC(=O)[C@H](C)NC(=O)[C@H](CCC(N)=O)NC(=O)[C@H](CO)NC(=O)[C@H](CS)NC(=O)[C@H](CO)NC(=O)[C@@H]1CCCN1C(=O)[C@H](CCC(=O)O)NC(=O)[C@H](CCC(=O)O)NC(=O)[C@H](CCC(=O)O)NC(=O)[C@@H]1CCCN1C(=O)[C@H](C)NC(=O)[C@H](CO)NC(=O)[C@H](CCCNC(=N)N)NC(=O)[C@H](CCCCN)NC(=O)CCCCCNC(=S)Nc1ccc2c(c1)C(=O)OC21c2ccc(O)cc2Oc2cc(O)ccc21)[C@@H](C)O)C(=O)O [KIPyV] ({FITC-Ahx}-KRSAPEEEPSCSQATPPKKKHA-OH; C-terminus assumed)	0.014 ± 0.003 µM	10 ± 1 nM	22 ± 1 nM	0.011 ± 0.002 µM	8 ± 1 nM	–
C[C@H](NC(=O)[C@H](CCC(N)=O)NC(=O)[C@H](CO)NC(=O)[C@H](CS)NC(=O)[C@H](CCC(N)=O)NC(=O)[C@@H]1CCCN1C(=O)[C@H](CCC(=O)O)NC(=O)[C@H](CCC(=O)O)NC(=O)[C@H](CC(=O)O)NC(=O)[C@H](CC(=O)O)NC(=O)[C@H](CCC(=O)O)NC(=O)[C@H](CCCNC(=N)N)NC(=O)[C@@H](NC(=O)[C@H](CCCNC(=N)N)NC(=O)[C@H](CCCCN)NC(=O)CCCCCNC(=S)Nc1ccc2c(c1)C(=O)OC21c2ccc(O)cc2Oc2cc(O)ccc21)[C@@H](C)O)C(=O)N[C@H](C(=O)N1CCC[C@H]1C(=O)N1CCC[C@H]1C(=O)N[C@@H](CCCCN)C(=O)N[C@@H](CCCCN)C(=O)N[C@@H](CCCCN)C(=O)N[C@@H](CCCCN)C(=O)N[C@@H](CC(=O)O)C(=O)O)[C@@H](C)O [WUPyV] ({FITC-Ahx}-KRTREDDEEPQCSQATPPKKKKD-OH; C-terminus assumed)	0.0361 ± 0.0022 µM	0.9 ± 0.04 nM	0.2 ± 0.02 nM	0.0003 ± 3e-05 µM	0.1 ± 0.1 nM	–
CSCC[C@H](NC(=O)CCCCCNC(=S)Nc1ccc2c(c1)C(=O)OC21c2ccc(O)cc2Oc2cc(O)ccc21)C(=O)N[C@@H](Cc1ccccc1)C(=O)N[C@@H](C)C(=O)N[C@@H](CO)C(=O)N[C@@H](CC(=O)O)C(=O)N[C@@H](CC(=O)O)C(=O)N[C@@H](CCC(=O)O)C(=O)N[C@@H](CC(N)=O)C(=O)N[C@H](C(=O)NCC(=O)N[C@@H](CO)C(=O)N[C@@H](CCC(N)=O)C(=O)N[C@@H](Cc1c[nH]cn1)C(=O)N[C@@H](CO)C(=O)N[C@H](C(=O)N1CCC[C@H]1C(=O)N1CCC[C@H]1C(=O)N[C@@H](CCCCN)C(=O)N[C@@H](CCCCN)C(=O)N[C@@H](CCCCN)C(=O)N[C@@H](CCCCN)C(=O)N[C@@H](CCCCN)C(=O)N[C@H](C(=O)O)C(C)C)[C@@H](C)O)[C@@H](C)O [JCPyV] ({FITC-Ahx}-MFASDDENTGSQHSTPPKKKKKV-OH; C-terminus assumed)	0.0896 ± 0.003 µM	271 ± 4.1 nM	76.9 ± 2 nM	0.119 ± 0.0028 µM	103 ± 1.1 nM	–
{FITC-Ahx}-PFSRKRTFGGSRSSASSASSASFTSTPPKPKKNRE [MCPyV NLSbip K280T]	–	–	–	–	–	binding to IMPα2ΔIBB (IMPα2ΔIBB [4]): completely abrogated IMPα2ΔIBB binding to MCPyV LTA NLSm but not NLSbip
{FITC-Ahx}-PFSRKRTFGGS [MCPyV NLSm K280T]	–	–	–	–	–	binding to IMPα2ΔIBB (IMPα2ΔIBB [4]): completely abrogated IMPα2ΔIBB binding
